Assay results: US20100047371A1, “COMPOSITIONS AND METHODS FOR ORAL CANCER CHEMOPREVENTION USING BERRY PREPARATIONS AND EXTRACTS” (priority 2006, published 2010)

Columns and labels:
[1] = system: Human Oral Mucosa Explant Tissues; assay: Effect of final gel pH on anthocyanin uptake into human oral mucosa explant tissues; assay type: in vitro ADME; settings: 10% w/w FBR gel; for Anthocyanin uptake, Gel pH 3.5, Avg. ± SEM / Anthocyanin uptake, Gel pH 6.5, Avg. ± SEM: average of eleven explant samples; for % change 3.5 to 6.5, Avg. ± SEM: average of explant samples
Method: Anthocyanin content in sera, saliva, and tissue explants was evaluated by an HPLC-MS assay. The respective samples (sera, saliva or tissue homogenates) were dissolved in 90% solvent A (water plus 1% formic acid) and 10% solvent B (acetonitrile plus 1% formic acid) and then separated on a Symmetry C18 reversed-phase column and analyzed using a Waters 2695 gradient HPLC separation module equipped with a 996 photodiode-array (PDA) UV/visible absorbance detector (Milford, Mass.). The solvent system consisted of a step gradient from 90% A to 50% B over 15 minutes, and the absorption spectra were recorded from 200-800 nm with the inline PDA detector. Mass spectrometry was conducted on a quadrupole ion tunnel mass spectrometer equipped with a Z-spray ESI source. Explant protein levels were determined by the Lowry method, using bovine γ-globulin as the standard protein [Lippman et al., 1993]. Tissue explants, specifically human oral mucosal explants, were used to determine the in vitro effects of FBR content and pH on anthocyanin uptake. Human oral tissues for the tissue explant studies were obtained from consenting volunteers who were undergoing elective oral surgery procedures. To confirm “no pathologic diagnosis”, a portion of each of these tissues was submitted for light microscopic evaluation. […] Tissues for explant experiments were immediately placed in an artificial saliva transport medium, which also served as the incubation medium for the gel absorption studies. The composition of the artificial saliva used for tissue transport and incubation was (final concentrations): sodium carboxymethylcellulose (0.5%), sorbitol (165 mM), NaCl (14 mM), KCl (16 mM), calcium chloride dehydrate (1.0 mM), MgCl2 (0.63 mM), Trizma hydrochloride (2.0 mM). Tissues from eight donors were used for preliminary studies to compare the penetration of anthocyanins from the 5% berry gel and the 10% FBR gel, both at a final pH of 6.5. In order to account for heterogeneity among human donors, tissue samples were hemisected. One tissue portion treated with 5% and the other with 10% FBR gels. One gram of gel (containing either 5% or 10% w/w FBR) was placed on the epithelial surface of the explant, followed by gently rubbing of the site for 30 seconds to facilitate uptake. Explants were then placed into artificial saliva, incubated for 30 minutes (37° C., 5% CO2), and then frozen at −80° C. until HPLC-mass spectroscopy analyses as previously reported [Rodrigo et al., in press]. Tissue preparation for HPLC analyses consisted of homogenization of the entire oral mucosal specimen, removal of an aliquot for sample protein level determination, followed by the addition of collagenase type II (0.1 mg/mL, GIBCO, Grand Island, N.Y.) and 1% formic acid. Samples were then placed on a Sep Pack (Millipore, Billerica, Mass.), eluted with methanol, and dried under argon gas. Additional oral mucosal explant studies were conducted to compare the effect of FBR gel pH on absorption into oral mucosal explants. Tissues from eleven donors were used for these studies, and handling was as described above with the exception that all gels contained 10% w/w FBR and were formulated at a final pH of 3.5 or 6.5. […] Large differences (up to 15-fold) in detectable anthocyanin levels were found in the gel treated donor tissues; findings that likely reflect the extensive heterogeneity within human tissues that affects tissue penetrative abilities.

[2] = Human pharmacokinetic study: anthocyanins in saliva and peripheral blood after topical gel application; assay type: in vivo; settings: 1.0 g 5% FBR Gel, pH 6.5 topical to floor of mouth, saliva collected 2-5 min after application
Method: Anthocyanin content in sera, saliva, and tissue explants was evaluated by an HPLC-MS assay. The respective samples (sera, saliva or tissue homogenates) were dissolved in 90% solvent A (water plus 1% formic acid) and 10% solvent B (acetonitrile plus 1% formic acid) and then separated on a Symmetry C18 reversed-phase column and analyzed using a Waters 2695 gradient HPLC separation module equipped with a 996 photodiode-array (PDA) UV/visible absorbance detector (Milford, Mass.). The solvent system consisted of a step gradient from 90% A to 50% B over 15 minutes, and the absorption spectra were recorded from 200-800 nm with the inline PDA detector. Mass spectrometry was conducted on a quadrupole ion tunnel mass spectrometer equipped with a Z-spray ESI source. Explant protein levels were determined by the Lowry method, using bovine γ-globulin as the standard protein [Lippman et al., 1993].
Next, evaluation of anthocyanin uptake into human oral mucosa from FBR gels prepared as described in Example 1 was undertaken. For in-vivo studies, participation of human subjects was conducted in accordance with an IRB approved protocol. […] For the phamacokinetic analyses, nine consenting adult volunteers dried the anterior floor of their mouth, placed 1.0 g of 5% berry gel (pH 6.5), and massaged the gel in place for 30 seconds to facilitate uptake. Two minutes after gel application saliva was collected for the next three minutes. Peripheral blood was drawn five minutes after gel application. Following clotting, sera samples were collected, and both the sera and saliva samples were stored at −80° C. until LC-MS analysis as described below.
All nine participants had detectable anthocyanin levels of three anthocyanins (cyanidin 3-rutinoside, cyanidin 3-xylosylrutinoside, cyanidin 3-glucoside) in either their saliva or blood, and 4 donors had detectable levels of two anthocyanins (cyanidin 3-rutinoside and cyanidin 3-xylosylrutinoside) in their peripheral blood. Saliva from eight of the nine donors contained detectable levels of either two (cyanidin 3-rutinoside and cyanidin 3-xylosylrutinoside-4 donors) or three anthocyanins (4 donors).

| Compound | Anthocyanin uptake, Gel pH 3.5, Avg. ± SEM [1] | Anthocyanin uptake, Gel pH 6.5, Avg. ± SEM [1] | % change 3.5 to 6.5, Avg. ± SEM [1] | % change 3.5 to 6.5 ([1]; explant sample 001) | Anthocyanin uptake, Gel pH 3.5 ([1]; explant sample 001) | Anthocyanin uptake, Gel pH 6.5 ([1]; explant sample 001) | % change 3.5 to 6.5 ([1]; explant sample 002) | Anthocyanin uptake, Gel pH 3.5 ([1]; explant sample 002) | Anthocyanin uptake, Gel pH 6.5 ([1]; explant sample 002) | % change 3.5 to 6.5 ([1]; explant sample 003) | Anthocyanin uptake, Gel pH 3.5 ([1]; explant sample 003) | Anthocyanin uptake, Gel pH 6.5 ([1]; explant sample 003) | % change 3.5 to 6.5 ([1]; explant sample 004) | Anthocyanin uptake, Gel pH 3.5 ([1]; explant sample 004) | Anthocyanin uptake, Gel pH 6.5 ([1]; explant sample 004) | % change 3.5 to 6.5 ([1]; explant sample 005) | Anthocyanin uptake, Gel pH 3.5 ([1]; explant sample 005) | Anthocyanin uptake, Gel pH 6.5 ([1]; explant sample 005) | % change 3.5 to 6.5 ([1]; explant sample 006) | Anthocyanin uptake, Gel pH 3.5 ([1]; explant sample 006) | also measured |
| --- | --- | --- | --- | --- | --- | --- | --- | --- | --- | --- | --- | --- | --- | --- | --- | --- | --- | --- | --- | --- | --- |
| OC[C@H]1O[C@@H](Oc2cc3c(O)cc(O)cc3[o+]c2-c2ccc(O)c(O)c2)[C@H](O[C@@H]2OC[C@@H](O)[C@H](O)[C@H]2O)[C@@H](O)[C@@H]1O.[Cl-] [Cyanidin 3-sambubioside, cyanidin 3-sambubioside] | 1.9 pmol per mg tissue | 5.3 pmol per mg tissue | 89.0% | 319.4% | 7.4 pmol per mg tissue | 30.9 pmol per mg tissue | 427.3% | 0.6 pmol per mg tissue | 2.9 pmol per mg tissue | −19.7% | 1.8 pmol per mg tissue | 1.4 pmol per mg tissue | −66.4% | 1.3 pmol per mg tissue | 0.4 pmol per mg tissue | −61.8% | 0.3 pmol per mg tissue | 0.1 pmol per mg tissue | 330.8% | 2.3 pmol per mg tissue | Anthocyanin uptake, Gel pH 6.5 ([1]; explant sample 006): 10.1 pmol per mg tissue; % change 3.5 to 6.5 ([1]; explant sample 007): −14.6%; Anthocyanin uptake, Gel pH 3.5 ([1]; explant sample 007): 0.4 pmol per mg tissue; Anthocyanin uptake, Gel pH 6.5 ([1]; explant sample 007): 0.4 pmol per mg tissue; Anthocyanin uptake, Gel pH 3.5 ([1]; explant sample 008): 0.0 pmol per mg tissue; Anthocyanin uptake, Gel pH 6.5 ([1]; explant sample 008): 1.9 pmol per mg tissue; % change 3.5 to 6.5 ([1]; explant sample 009): 256.9%; Anthocyanin uptake, Gel pH 3.5 ([1]; explant sample 009): 2.9 pmol per mg tissue; Anthocyanin uptake, Gel pH 6.5 ([1]; explant sample 009): 10.3 pmol per mg tissue; % change 3.5 to 6.5 ([1]; explant sample 010): −92.9%; Anthocyanin uptake, Gel pH 3.5 ([1]; explant sample 010): 2.0 pmol per mg tissue; Anthocyanin uptake, Gel pH 6.5 ([1]; explant sample 010): 0.1 pmol per mg tissue; % change 3.5 to 6.5 ([1]; explant sample 011): −100%; Anthocyanin uptake, Gel pH 3.5 ([1]; explant sample 011): 2.1 pmol per mg tissue; Anthocyanin uptake, Gel pH 6.5 ([1]; explant sample 011): 0.0 pmol per mg tissue |
| OC[C@H]1O[C@@H](Oc2cc3c(O)cc(O)cc3[o+]c2-c2ccc(O)c(O)c2)[C@H](O)[C@@H](O)[C@@H]1O [cyanidin 3-glucoside] | 29.6 pmol per mg tissue | 50.2 pmol per mg tissue | 85.6% | 131.6% | 128.1 pmol per mg tissue | 296.6 pmol per mg tissue | 36.2% | 13.6 pmol per mg tissue | 18.5 pmol per mg tissue | −16.6% | 14.4 pmol per mg tissue | 12.0 pmol per mg tissue | 653.5% | 1.6 pmol per mg tissue | 12.0 pmol per mg tissue | 65.3% | 32.0 pmol per mg tissue | 52.9 pmol per mg tissue | 91.3% | 31.5 pmol per mg tissue | Anthocyanin uptake, Gel pH 6.5 ([1]; explant sample 006): 60.3 pmol per mg tissue; % change 3.5 to 6.5 ([1]; explant sample 007): 34.5%; Anthocyanin uptake, Gel pH 3.5 ([1]; explant sample 007): 17.0 pmol per mg tissue; Anthocyanin uptake, Gel pH 6.5 ([1]; explant sample 007): 22.8 pmol per mg tissue; % change 3.5 to 6.5 ([1]; explant sample 008): −40.7%; Anthocyanin uptake, Gel pH 3.5 ([1]; explant sample 008): 33.2 pmol per mg tissue; Anthocyanin uptake, Gel pH 6.5 ([1]; explant sample 008): 19.7 pmol per mg tissue; % change 3.5 to 6.5 ([1]; explant sample 009): 113.9%; Anthocyanin uptake, Gel pH 3.5 ([1]; explant sample 009): 21.2 pmol per mg tissue; Anthocyanin uptake, Gel pH 6.5 ([1]; explant sample 009): 45.3 pmol per mg tissue; % change 3.5 to 6.5 ([1]; explant sample 010): −66.9%; Anthocyanin uptake, Gel pH 3.5 ([1]; explant sample 010): 13.9 pmol per mg tissue; Anthocyanin uptake, Gel pH 6.5 ([1]; explant sample 010): 4.6 pmol per mg tissue; % change 3.5 to 6.5 ([1]; explant sample 011): −60.1%; Anthocyanin uptake, Gel pH 3.5 ([1]; explant sample 011): 18.9 pmol per mg tissue; Anthocyanin uptake, Gel pH 6.5 ([1]; explant sample 011): 7.5 pmol per mg tissue; Anthocyanin concentration in saliva ([2]; patient 104): 11.2 pmol/mL; Anthocyanin concentration in saliva ([2]; patient 105): 9.7 pmol/mL; Anthocyanin concentration in saliva ([2]; patient 107): 19.7 pmol/mL; Anthocyanin concentration in saliva ([2]; patient 109): 22.8 pmol/mL |
